Assay: Acid dissociation constants (pKa) of the dopant compounds
Type: physicochemical
Details: read-out: acid dissociation constant (pKa)

Row | pKa | Structure (SMILES)
1 | 9.77 | CCCCCCCCCCOc1ccc(-c2ccc(C(=O)O)cc2)cc1 [Formula (I-3)]
2 | 7.68 | CCCCCCc1ccc(-c2ccc(C(=O)O)cc2)cc1 [Formula (I-1)]
3 | 8.74 | CCCCCCCCCCCCOc1ccc(-c2ccc(C(=O)O)cc2)cc1 [Formula (I-4)]
4 | 7.66 | CCCCCCCCOc1ccc(-c2ccc(C(=O)O)cc2)cc1 [Formula (I-2)]
